Consider 14 compounds from patent US5538973A, “Imidazole derivative, pharmaceutical use thereof, and intermediate therefor” (Kyoto Pharmaceutical Industries, Ltd., priority 1992, dated 1996).

Data set [1] relates to blood platelet aggregation. Put plainly: Inhibitory action on blood platelet aggregation (arachidonic acid aggregation in rich platelet plasma, nephelometry). The format is cell-based. The conditions noted are these: arachidonic acid 0.1 mM, test drug added 1 minute before, read-out: Exp. 2 (IC50) inhibitory action on blood platelet aggregation. The protocol:
Arachidonic acid aggregation in rich platelet plasma was determined by nephelometry. The test drug was added 1 minute before the addition of the arachidonic acid (0.1 mM).
(§1) The experiments 1-4 described above were conducted using the compounds of Examples 1, 2, 6, 8, 12, 14, 19, 23, 27, 30, 34, and 35 to be mentioned below, compound (V), and Terfenadine, the results of which are shown in Table 1.

For data set [2], the system named is contraction of lung parenchymal specimen by histamine. Put plainly: Antihistaminic action: contraction of lung parenchymal specimen caused by histamine. The format is cell-based. The conditions noted are these: test compound 10^-5 M, histamine 10^-5 M, guinea pig lung parenchyma; for inhibition at 10 µM: Cavia porcellus, read-out: Exp. 3 % at which the test compound suppressed contraction by histamine. As to the method:
A lung parenchymal specimen extracted from guinea pig was hung in a nutritive solution at 37° C., and applied a load of 0.5 g. Contraction caused by histamine under aeration of 95% O2 +5% CO2 was recorded isometrically. The inhibition by the test drug with respect to the dose-reaction curve by histamine at 10^-7 -10^-4 was examined.
as §1
*% at which the test compound (10^-5 M) suppressed contraction by […]

Data set [3] deals with airway contraction by histamine. Put plainly: Inhibitory action on contraction of respiratory tract by histamine (Konzett and Roessler method). The format is in vivo, guinea pig. The conditions noted are these: for inhibition in vivo at 30 mg/kg: Cavia porcellus, po, 1 h, read-out: Exp. 4-1 % at which the test compound suppressed airway contraction by histamine. As to the method:
(§2) A respiratory tract contraction (histamine, LTD4) was intravenously administered to anesthetized guinea pig, and a change in airway resistance was measured in accordance with Konzett end Roessler method. The test drug was orally administered 1 hour before the administration of the contraction inducing agent.
as §1
(§3) **% at which the test compound (30 mg/kg, p.o.) suppressed airway
(§4) contraction by histamine (41) or LTD4 (42)

Data set [4] has as its system airway contraction by LTD4. The data set is described as follows: Inhibitory action on contraction of respiratory tract by LTD4 (Konzett and Roessler method). It is filed as in vivo, guinea pig. Conditions: for inhibition in vivo at 30 mg/kg: Cavia porcellus, po, 1 h, read-out: Exp. 4-2 % at which the test compound suppressed airway contraction by LTD4. As to the method:
as §2, §1, §3, §4

For another data set, the system named is synthesis of TXA2. The data set is described as follows: Inhibitory action on synthesis of TXA2 (PGH2 substrate, aspirin-treated platelets, TXB2 by RIA). Conditions: Platelet, read-out: Exp. 1 (IC50) inhibitory action on synthesis of TXA2. The format is cell-based. As to the method:
Prostaglandin H2 (PGH2) was added as a substrate to an aspirin-treated platelet floating solution, and the mixture was incubated at 37° C. The resultant TXA2 was converted to TXB2, and measured by RIA method. The test drug was added 10 minutes before the addition of PGH2.
as §1

The next data set deals with male ddy mice. The data set is described as follows: Acute toxicity, oral, male ddy mice. The conditions noted are these: 1000 mg/20 ml/kg orally, 5 male ddy mice. The format is in vivo. The protocol:
The compound of Example 6 was suspended in a 5% gum arabic solution and orally administered to 5 male ddy mice at 1000 mg/20 ml /kg.

[5] abbreviates: 30 mg/kg, p.o., 1 hour before histamine i.v., anesthetized guinea pig.
Where [6] appears, read: 30 mg/kg, p.o., 1 hour before LTD4 i.v., anesthetized guinea pig.
[7] abbreviates: test drug added 10 minutes before PGH2, 37° C.

Molecules are shown by their SMILES. Where a name gives a salt, the structure may show the parent alone. Read-outs that look alike come from different tables or passages of the source. A value given as a limit tells only on which side of the number the result lay.

On to `c1ccc(C(c2ccccc2)N2CCN(CCCn3ccc4cc(-n5ccnc5)ccc43)CC2)cc1` [Example 19], for which the IC50 in data set [1] (Platelet) amounted to 21 µM. Besides, the inhibition at 10 µM in data set [2] amounted to 45%. In addition, the inhibition in vivo at 30 mg/kg in data set [3] (setting [5]) is 94%; in data set [4] (setting [6]) it was 40%.
The like results for `O=C(O)c1ccc2c(c1)c(CCn1ccnc1)cn2CCCN1CCC(Cc2ccccc2)CC1` [Example 34] were, in that order, above 100 µM, 58%, 90% and 31%.
Regarding `O=C(O)C=Cc1ccc(Cn2ccnc2)cc1` [Compound (V), reference compound], the IC50 turned out to be 1.5 µM in the data set with synthesis of TXA2 (setting [7]) and 54 µM in data set [1] (Platelet). For the same compound, the inhibition at 10 µM in data set [2] turned out to be 8%. The inhibition in vivo at 30 mg/kg in data set [3] (setting [5]) is 4%; in data set [4] (setting [6]) it was 57%.
Take `O=C(N1CCN(CCOC(c2ccccc2)c2ccccc2)CC1)N1CCc2cc(Cn3ccnc3)ccc21` [Example 12]: the IC50 in data set [1] (Platelet) turned out to be 18 µM. Besides, in data set [2], the inhibition at 10 µM is 61%. In addition, the results for the inhibition in vivo at 30 mg/kg in data set [3] and in data set [4] were 100% and 64%, respectively.
As for `c1ccc(CC2CCN(CCn3ccc4cc(-n5ccnc5)ccc43)CC2)cc1` [Example 27], the IC50 in data set [1] (Platelet) is above 100 µM. Also, in data set [2], the inhibition at 10 µM came out at 58%. The inhibition in vivo at 30 mg/kg is 100% in data set [3] (setting [5]) and 68% in data set [4] (setting [6]).
Take `O=C(N1CCN(CCOC(c2ccccc2)c2ccccc2)CC1)N1CCc2cc(-n3ccnc3)ccc21` [Example 2, 1-{4-[(2-benzhydryloxyethyl)-1-piperazinyl]-carbonyl}-5-(1H-imidazol-1-yl)indoline oxalate]: the IC50 was determined as 1.5 µM in the data set on synthesis of TXA2 and 4.7 µM in data set [1] (Platelet). In addition, in data set [2], the inhibition at 10 µM came out at 66%. Also, the inhibition in vivo at 30 mg/kg in data set [3] turned out to be 100%; in data set [4] it was 83%.
For `O=C(O)c1ccc2c(c1)c(CCn1ccnc1)cn2CCCN1CCN(CCOC(c2ccccc2)c2ccccc2)CC1` [Example 35], the IC50 in data set [1] (Platelet) is 71 µM. In addition, in data set [2], the inhibition at 10 µM amounted to 100%. Besides, the inhibition in vivo at 30 mg/kg in data set [3] stood at 100%; in data set [4] it was 18%.
For the compound `O=C(O)c1ccc2c(Cn3ccnc3)cn(CCCN3CCC(Cc4ccccc4)CC3)c2c1` [Example 30], the IC50 in data set [1] (Platelet) worked out at 9.9 µM. Further, the inhibition at 10 µM in data set [2] came to 100%. For the same compound, the inhibition in vivo at 30 mg/kg in data set [3] (setting [5]) is 100%; in data set [4] (setting [6]), 26%.
Regarding `O=C(CN1CCN(CCOC(c2ccccc2)c2ccccc2)CC1)N1CCc2cc(Cn3ccnc3)ccc21` [Example 14], the IC50 in data set [1] (Platelet) turned out to be 58 µM. Also, the inhibition at 10 µM in data set [2] was 45%. Also, the inhibition in vivo at 30 mg/kg is 100% in data set [3] and 42% in data set [4].
For `O=C(CN1CCN(CCOC(c2ccccc2)c2ccccc2)CC1)N1CCc2cc(-n3ccnc3)ccc21` [Example 8] the same measures were 2.1 µM, 55%, 100% and 87%.
`O=C(COCCN1CCN(C(c2ccccc2)c2ccccc2)CC1)N1CCc2cc(-n3ccnc3)ccc21` [Example 1, 1-[2-(4-benzhydryl-1-piperazinyl)ethoxyacetyl]-5-(1H-imidazol-1-yl)indoline oxalate]: the concentration for half-maximal inhibition (IC50) in data set [1] (Platelet) was found to be 4.4 µM. Also, the inhibition at 10 µM in data set [2] was found to be 95%. Besides, the inhibition in vivo at 30 mg/kg in data set [3] (setting [5]) is 100%; in data set [4] (setting [6]) it was 73%.
For `Cl.Cl.Cl.O=C(O)c1cc2cc(Cn3ccnc3)ccc2n1CCCN1CCN(C(c2ccccc2)c2ccccc2)CC1` [Example 6, 1-[3-(4-benzhydryl-1-piperazinyl)propyl]-5-(1H-imidazol-1-ylmethyl)-1H-indole-2-carboxylic acid trihydrochloride], the IC50 in the data set with synthesis of TXA2 (setting [7]) came out at 0.4 µM; in data set [1] (listed as Ex. 6, trihydrochloride), 8.1 µM. For the same compound, the inhibition at 10 µM in data set [2] was 100%. For the same compound, the inhibition in vivo at 30 mg/kg in data set [3] (setting [5]) is 100%. For the same compound, the “Exp. 4-2 % at which the test compound suppressed airway contraction by LTD4” value in data set [4] (setting [6]) stood at 75%. Also, the death result in the data set with male ddy mice is “No death was observed”.
Consider `O=C(O)c1cc2cc(Cn3ccnc3)ccc2n1CCCN1CCN(C(c2ccccc2)c2ccccc2)CC1` [Example 23], for which, in data set [1] (listed as Ex. 23), the half-inhibitory concentration (IC50) was found to be 34 µM. Also, in data set [2] (10 µM), the “Exp. 3 % at which the test compound suppressed contraction by histamine” value is recorded as 94%. Moreover, the “Exp. 4-1 % at which the test compound suppressed airway contraction by histamine” value in data set [3] (setting [5]) is given as 94%. In data set [4] (setting [6]), the “Exp. 4-2 % at which the test compound suppressed airway contraction by LTD4” value is reported as 53%.
On to `CC(C)(C)c1ccc(C(O)CCCN2CCC(C(O)(c3ccccc3)c3ccccc3)CC2)cc1` (centres unmarked) [Terfenadine, reference compound], for which the inhibition at 10 µM in data set [2] came out at 48%. Besides, the inhibition in vivo at 30 mg/kg in data set [3] (setting [5]) is 100%; in data set [4] (setting [6]), 27%.
